In patent US20110306631A1, “TRIPLE SUBSTITUTED PHENANTHROLINE DERIVATIVES FOR THE TREATMENT OF NEURODEGENERATIVE OR HAEMATOLOGICAL DISEASES OR CONDITIONS, OR CANCER” (NOSCIRA, S.A., priority 2008, published 2011):

Key:
[1] = system: SH-SY5Y human neuroblastoma cells; test: Protection against hydrogen peroxide-induced cell death (LDH); format: cell-based; conditions: compound 1 h before H2O2 100 μM during 24 h
Experimental: The aim of this assay is to determine the neuroprotective effect of the compounds of formula (I), when human neuroblastoma cells are exposed to oxidative stress induced by hydrogen peroxide, which is highly deleterious to the cell and its accumulation causes oxidation of cellular targets such as DNA, proteins, and lipids leading to mutagenesis and cell death.
SH-SY5Y human neuroblastoma cells are seeded into 96-well culture plate at a density of 10^4 cells/well. Cells are exposed to different concentrations of the compound one hour before the treatment with H2O2 100 μM during 24 h. 5 mM N-acetylcysteine (NAC), a known anti-oxidant agent was used as a positive control, and preincubated 1 hour before the treatment with H2O2. After 24 h, the medium is removed and cells attached to the bottom of the well are lysed by adding 50 μl of Triton X-100 1% in Krebs-Hepes during 5 minutes at room temperature. For LDH release quantification, Roche cytotoxicity detection kit (Cat. No. 11 644 793 001) was used.

[2] = system: SH-SY5Y human neuroblastoma cells; test: Protection against 6-OHDA-induced cell death (LDH); format: cell-based; conditions: preincubated 2 hours before 6-OHDA 75 μM during 16 hours, 10% Foetal bovine serum
Description: The aim of this experiment is to determine the protective effect of the compounds of formula (I) against the toxicity caused by 6-OHDA. This toxin induces a cell death similar to which occurs in Parkinson's disease, destroying dopaminergic neurons (“MPTP and 6-hydroxydopamine-induced neurodegeneration as models for Parkinson's disease: neuroprotective strategies”; Grunblatt E, et al.; J Neurol. 2000 April; 247 Suppl 2:II95-102).
Two or three days before the experiment, the SH-SY5Y human neuroblastoma cells are seeded into 96-well culture plate at a density of 10^4 cells/well. Cells are exposed to the treatment with 6-OHDA and, finally, cell death is measured by LDH quantification. As positive control we used NAC.
NAC and the compound of formula (I) are preincubated during 2 hours before the treatment with 6-OHDA 75 μM during 16 hours. The assay is performed in medium containing 10% Foetal bovine serum.
For each compound the minimum concentration of compound of formula (I) at which a neuroprotective effect is shown.

[3] = system: SH-SY5Y human neuroblastoma cells; test: Toxicity: cell viability by LDH activity release; format: cell-based; conditions: 24 h
Experimental: The potential effects on cell viability of the tested compounds were assessed in SH-SY5Y human neuroblastoma cells, by quantification of Lactate dehydrogenase (LDH) activity release. SH-SY5Y human neuroblastoma cells were seeded into 96-well culture plates at 10^4 cells/well. The medium was then removed and the cells incubated with different concentrations of the compounds during 24 h. […] After 24 h, the medium was removed and cells attached to the bottom of the well were lysed by adding 50 μl of Krebs-Hepes; Triton X-100 1% during 5 minutes at room temperature. For LDH release quantification, the Roche cytotoxicity detection kit (Cat. No. 11 644 793 001) was used. The LDH activity was measured by its absorbance at 492 nm with reference wavelength 620 nm.
In Table 2, for each compound the maximum concentration at which cell viability was tested is indicated in the second column. In the third column, it is indicated whether at this maximum concentration the compound affected or not cell viability (>20% of cell death).

[4] = system: Aβ (1-40) secretion, CHO7W (stably transfected with human APP751 wt cDNA); test: Inhibition of Aβ(1-40) secretion (ELISA of cellular supernatants); format: cell-based; conditions: CHO7W cells, Aβ(1-40) in supernatants
Description: To quantitate Aβ secretion ELISA-based method was used. The assay consists in detection of antigen by selective monoclonal anti-Aβ-antibodies at two different epitopes forming a “Sandwich-complex”, that is detected by colorimetric measure due to the binding of a secondary antibody conjugated with peroxidase that catalyses the conversion of a substrate or chromogen, TMB, into a coloured product, directly proportional to the peptide quantity in the sample. The Aβ production has been analyzed by ELISA, using a colorimetric commercial kit: H-amuloid b-30 ELISA (The Genetics Company).
Aβ (1-40) were quantified from cellular supernatants. An APP-transfected cell line has been employed for the experiments: CHO7W (stably transfected with human APP751 wt cDNA). The cells were grown in a culture medium consisting of DMEM supplemented with 2% Fetal bovine serum, 1% penicillin-streptomycin, 1% L-glutamine and 200 μg/ml G418. Cells are seeded in 96-well culture microplate, at 5000 cells/well and treatment with different compounds at different concentrations is performed 24 hour after seeding.

[5] = system: SH-SY5Y cells; test: Neuroprotection against Aβ25-35 toxicity (LDH); format: cell-based, human; conditions: pre-treated 1 hour, then 24 hours 200 μM Aβ25-35
Experimental: In order to evaluate potential neuroprotection of compounds, SH-SY5Y cells, cultured in 96-well plates, were pre-treated for 1 hour with the compound at different concentrations and then exposed 24 hours to 200 μM Aβ25-35 (Neosystem) to induce extensive oxidative stress and cell death. The ability of the compound of protecting against this toxicity is then evaluated by measuring intracellular LDH, using the colorimetric LDH assay.
It is widely accepted that the neurotoxic activity of Aβ resides within amino acids 25-35 (see e.g. Yankner B A et al., (1990) Neurotrophic and neurotoxic effects of amyloid β protein: reversal by tachykinin neuropeptides; Science 250:279-282).

[6] = maximum concentration tested 100 μM
[7] = maximum concentration tested 1000 μM

SMILES: COc1cc2c(SC)cc(/C=N/O)nc2c2ncccc12 [E, 6-methoxy-4-methylsulfanyl-[1,10]phenanthroline-2-carbaldehyde oxyme]
- Protect H2O2 (minimum concentration for which protection against H2O2 was determined) [1]: 0.05 µM
- Protection 6-OHDA (minimum concentration at which a neuroprotective effect is shown) [2]: 0.5 µM
- Yes/No: compound affected cell viability at maximum concentration tested [3, 6]: Y (affected or not cell viability (>20% of cell death))
- inhibition Aβ secretion (minimum concentration at which the compound inhibits beta-amyloid secretion) [4]: 10 µM
- Protection β-Amiloyd (minimum concentration showing neuroprotection against Aβ25-35 toxicity) [5]: 10 µM

SMILES: COc1cc2cccnc2c2nc(/C=N/O)cc(SC)c12 [A, 5-methoxy-4-methylsulfanyl-[1,10]-phenanthroline-2-carbaldehyde oxime]
- Protect H2O2 (minimum concentration for which protection against H2O2 was determined) [1]: 0.05 µM
- Protection 6-OHDA (minimum concentration at which a neuroprotective effect is shown) [2]: 0.05 µM
- Yes/No: compound affected cell viability at maximum concentration tested [3, 6]: Y (affected or not cell viability (>20% of cell death))
- inhibition Aβ secretion (minimum concentration at which the compound inhibits beta-amyloid secretion) [4]: 0.1 µM
- Protection β-Amiloyd (minimum concentration showing neuroprotection against Aβ25-35 toxicity) [5]: 5 µM

SMILES: COCCOc1cc2cccnc2c2nc(/C=N/O)cc(OC)c12 [C, 4-methoxy-5-(2-methoxy-ethoxy)-[1,10]-phenanthroline-2-carbaldehyde oxime]
- Protect H2O2 (minimum concentration for which protection against H2O2 was determined) [1]: 0.005 µM
- Protection 6-OHDA (minimum concentration at which a neuroprotective effect is shown) [2]: 0.5 µM
- Yes/No: compound affected cell viability at maximum concentration tested [3, 7]: N (affected or not cell viability (>20% of cell death))
- inhibition Aβ secretion (minimum concentration at which the compound inhibits beta-amyloid secretion) [4]: 0.1 µM
- Protection β-Amiloyd (minimum concentration showing neuroprotection against Aβ25-35 toxicity) [5]: 5 µM

SMILES: COc1cc(/C=N/O)nc2c1c(F)cc1cccnc12 [B, 5-fluoro-4-methoxy-[1,10]-phenanthroline-2-carbaldehyde oxime]
- Protect H2O2 (minimum concentration for which protection against H2O2 was determined) [1]: 0.05 µM
- Protection 6-OHDA (minimum concentration at which a neuroprotective effect is shown) [2]: 0.05 µM
- Yes/No: compound affected cell viability at maximum concentration tested [3, 7]: N (affected or not cell viability (>20% of cell death))
- inhibition Aβ secretion (minimum concentration at which the compound inhibits beta-amyloid secretion) [4]: 1 µM
- Protection β-Amiloyd (minimum concentration showing neuroprotection against Aβ25-35 toxicity) [5]: 5 µM

SMILES: CSc1cc(/C=N/O)nc2c1c(C)cc1cccnc12 [D, 5-methyl-4-methylsulfanyl-[1,10]phenanthroline-2-carbaldehyde oxime]
- Protect H2O2 (minimum concentration for which protection against H2O2 was determined) [1]: 0.5 µM
- Protection 6-OHDA (minimum concentration at which a neuroprotective effect is shown) [2]: 0.05 µM
- Yes/No: compound affected cell viability at maximum concentration tested [3, 7]: N (affected or not cell viability (>20% of cell death))
- inhibition Aβ secretion (minimum concentration at which the compound inhibits beta-amyloid secretion) [4]: 1 µM
- Protection β-Amiloyd (minimum concentration showing neuroprotection against Aβ25-35 toxicity) [5]: 0.5 µM

SMILES: COc1cc2c(=O)cc(/C=N/O)[nH]c2c2ncccc12 [F, 6-methoxy-4-oxo-1,4-dihydro-[1,10]phenanthroline-2-carbaldehyde oxime]
- Protection 6-OHDA (minimum concentration at which a neuroprotective effect is shown) [2]: 10 µM
- Yes/No: compound affected cell viability at maximum concentration tested [3, 7]: N (affected or not cell viability (>20% of cell death))
